PubChem BioAssay AID248 (DTP/NCI, 2004)
Values joined by “and” are separate entries in the source; they are usually repeats but may differ in a detail not shown here. Equal values may be shown once. Inconclusive results and toxic doses are left out. No stated cut-off is given here; in the data, active means T/C of 150% or more; inactive means T/C below 125%.

Test system: L1210 leukemia ip in BDF1 mice, survival T/C
Test: NCI In Vivo Anticancer Drug Screen. Data for tumor model L1210 Leukemia (intraperitoneal) in B6D2F1 (BDF1) mice
Conditions: endpoint: mean survival time, higher = longer survival
Procedure, shortened: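 In this screen, tumor-bearing mice given compound are compared to those given vehicle, and their survival values are reported as a treated-to-control quotient.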

[1] = dose: 100.0 mg/kg/injection, schedule: Q04DX002 (ip), vehicle: saline
[2] = dose: 100.0 mg/kg/injection, schedule: Q04DX003 (ip), vehicle: saline
[3] = dose: 200.0 mg/kg/injection, schedule: Q04DX003 (ip), vehicle: saline
[4] = dose: 100.0 mg/kg/injection, schedule: Q01DX001 (ip), vehicle: Klucel (hydroxypropylcellulose) (HPC)
[5] = dose: 200.0 mg/kg/injection, schedule: Q01DX001 (ip), vehicle: Klucel (hydroxypropylcellulose) (HPC)
[6] = dose: 400.0 mg/kg/injection, schedule: Q01DX001 (ip), vehicle: Klucel (hydroxypropylcellulose) (HPC)
[7] = dose: 200.0 mg/kg/injection, schedule: Q01DX009 (ip), vehicle: Klucel (hydroxypropylcellulose) (HPC)
[8] = dose: 100.0 mg/kg/injection, schedule: Q01DX001 (ip), vehicle: carboxymethylcellulose (CMC)
[9] = dose: 100.0 mg/kg/injection, schedule: Q01DX001 (ip), vehicle: saline
[10] = dose: 200.0 mg/kg/injection, schedule: Q01DX001 (ip), vehicle: saline
[11] = dose: 400.0 mg/kg/injection, schedule: Q01DX001 (ip), vehicle: saline
[12] = dose: 200.0 mg/kg/injection, schedule: Q04DX002 (ip), vehicle: saline
[13] = dose: 400.0 mg/kg/injection, schedule: Q04DX002 (ip), vehicle: saline
[14] = dose: 100.0 mg/kg/injection, schedule: Q04DX003 (ip), vehicle: saline with Tween-80
[15] = dose: 200.0 mg/kg/injection, schedule: Q04DX003 (ip), vehicle: saline with Tween-80
[16] = dose: 400.0 mg/kg/injection, schedule: Q04DX003 (ip), vehicle: saline with Tween-80
[17] = dose: 100.0 mg/kg/injection, schedule: Q01DX001 (ip), vehicle: saline with Tween-80
[18] = dose: 200.0 mg/kg/injection, schedule: Q01DX001 (ip), vehicle: saline with Tween-80
[19] = dose: 400.0 mg/kg/injection, schedule: Q01DX001 (ip), vehicle: saline with Tween-80
[20] = dose: 100.0 mg/kg/injection, schedule: Q01DX009 (ip), vehicle: saline with Tween-80
[21] = dose: 200.0 mg/kg/injection, schedule: Q01DX009 (ip), vehicle: saline with Tween-80
[22] = dose: 400.0 mg/kg/injection, schedule: Q01DX009 (ip), vehicle: saline with Tween-80

Measured: T/C

CN(C)CCCN=C(N)CCl
inactive: dose: 12.5 mg/kg/injection, schedule: Q04DX002 (ip), vehicle: saline 101 % of control | dose: 25.0 mg/kg/injection, schedule: Q04DX002 (ip), vehicle: saline 108 % of control | dose: 50.0 mg/kg/injection, schedule: Q04DX002 (ip), vehicle: saline 87 % of control | [1] 97 % of control

O=C(CC1CCCCN1)CC1CCCCN1 (configuration not stated)
inactive: [2] 92 % of control | [3] 101 % of control

O=[N+]([O-])c1cccc(C=Nc2ccc(Cl)cc2Cl)c1
inactive: [4] 92 % of control | dose: 100.0 mg/kg/injection, schedule: Q04DX003 (ip), vehicle: Klucel (hydroxypropylcellulose) (HPC) 102 % of control | [5] 91 % of control | dose: 200.0 mg/kg/injection, schedule: Q04DX003 (ip), vehicle: Klucel (hydroxypropylcellulose) (HPC) 98 % of control | [6] 91 % of control | dose: 400.0 mg/kg/injection, schedule: Q04DX003 (ip), vehicle: Klucel (hydroxypropylcellulose) (HPC) 89 % of control

COc1ccc(C)cc1NC(=O)Nc1ccccc1C(F)(F)F
inactive: dose: 100.0 mg/kg/injection, schedule: Q01DX009 (ip), vehicle: Klucel (hydroxypropylcellulose) (HPC) 89 % of control | [7] 91 % of control | dose: 400.0 mg/kg/injection, schedule: Q01DX009 (ip), vehicle: Klucel (hydroxypropylcellulose) (HPC) 100 % of control

NC(CO)C(=O)O (configuration not stated)
inactive: [8] 95 % of control | [9] 91 % of control and 104 % of control | dose: 200.0 mg/kg/injection, schedule: Q01DX001 (ip), vehicle: carboxymethylcellulose (CMC) 101 % of control | [10] 92 % of control and 101 % of control | dose: 400.0 mg/kg/injection, schedule: Q01DX001 (ip), vehicle: carboxymethylcellulose (CMC) 103 % of control | [11] 105 % of control and 95 % of control

CCCCN1COC(OCC)C(C)(C)C1 (configuration not stated)
inactive: dose: 75.0 mg/kg/injection, schedule: Q01DX009 (ip), vehicle: saline 116 % of control | dose: 150.0 mg/kg/injection, schedule: Q01DX009 (ip), vehicle: saline 113 % of control | dose: 300.0 mg/kg/injection, schedule: Q01DX009 (ip), vehicle: saline 112 % of control

CCCNC(c1ccc(C=NC(CC)(CO)CO)cc1)C(Cl)(Cl)Cl (configuration not stated)
inactive: [9] 89 % of control | [10] 92 % of control | [11] 97 % of control

O=C(COc1ccc(Cl)cc1Cl)NNc1ccc([N+](=O)[O-])cc1
inactive: [1] 100 % of control | [12] 92 % of control | [13] 88 % of control

COc1cccc(/C=C(/SC)S(C)=O)c1OC (configuration not stated)
inactive: [2] 105 % of control | [3] 106 % of control | dose: 400.0 mg/kg/injection, schedule: Q04DX003 (ip), vehicle: saline 102 % of control

CCP(=S)(CP(=S)(c1ccccc1)c1ccccc1)c1ccccc1 (configuration not stated)
inactive: dose: 100.0 mg/kg/injection, schedule: Q04DX002 (sc), vehicle: olive oil, sesame oil, peanut oil 104 % of control | dose: 200.0 mg/kg/injection, schedule: Q04DX002 (sc), vehicle: olive oil, sesame oil, peanut oil 104 % of control | dose: 400.0 mg/kg/injection, schedule: Q04DX002 (sc), vehicle: olive oil, sesame oil, peanut oil 104 % of control

O=C(OCCN(CCOC(=O)c1ccc([N+](=O)[O-])cc1)c1c[nH]c(=O)[nH]c1=O)c1ccc([N+](=O)[O-])cc1
inactive: dose: 50.0 mg/kg/injection, schedule: Q01DX001 (ip), vehicle: saline 93 % of control | [9] 93 % of control | [10] 93 % of control | [11] 110 % of control

CC1CCC2(NC1)OC1CC3C4CC=C5CC(OC(=O)N(CCCl)CCCl)CCC5(C)C4CCC3(C)C1C2C (configuration not stated)
inactive: dose: 100.0 mg/kg/injection, schedule: Q01DX001 (sc), vehicle: steriod suspending solution 97 % of control | dose: 200.0 mg/kg/injection, schedule: Q01DX001 (sc), vehicle: steriod suspending solution 123 % of control | dose: 400.0 mg/kg/injection, schedule: Q01DX001 (sc), vehicle: steriod suspending solution 97 % of control

CC(C)N=NCCO
inactive: [4] 101 % of control | [5] 103 % of control | [7] 92 % of control | [6] 99 % of control

C(/C=C/C=C/Nc1ccccc1)=Nc1ccccc1
inactive: [14] 100 % of control | [15] 104 % of control | [16] 92 % of control

NCc1cccc(OCCOc2ccccc2)c1
inactive: [17] 102 % of control | [18] 97 % of control | [19] 103 % of control

CC(C)(C)NC(=O)CCC(CC(=O)NC(C)(C)C)S(=O)(=O)O (configuration not stated)
inactive: dose: 50.0 mg/kg/injection, schedule: Q01DX009 (ip), vehicle: saline 97 % of control | dose: 100.0 mg/kg/injection, schedule: Q01DX009 (ip), vehicle: saline 97 % of control | [2] 98 % of control | dose: 200.0 mg/kg/injection, schedule: Q01DX009 (ip), vehicle: saline 90 % of control | [3] 95 % of control

CCCCOCC(O)CNCCN (configuration not stated)
inactive: [1] 108 % of control | [12] 90 % of control | [13] 104 % of control

COc1ccc(/C=C/c2cc[n+](C)cc2)cc1
inactive: dose: 12.5 mg/kg/injection, schedule: Q04DX003 (ip), vehicle: saline with Tween-80 97 % of control | dose: 25.0 mg/kg/injection, schedule: Q04DX003 (ip), vehicle: saline with Tween-80 94 % of control | dose: 50.0 mg/kg/injection, schedule: Q04DX003 (ip), vehicle: saline with Tween-80 94 % of control

O=C1N(Cl)C2C(N1Cl)N(Cl)C(=O)N2Cl (configuration not stated)
inactive: dose: 50.0 mg/kg/injection, schedule: Q01DX001 (ip), vehicle: carboxymethylcellulose (CMC) 97 % of control | [8] 97 % of control

CC12CCC(=O)N1C(C(=O)O)CS2 (configuration not stated)
inactive: [1] 91 % of control | [12] 102 % of control | [13] 98 % of control

Nc1ccc(S(=O)(=O)Nc2ccc([N+](=O)[O-])cc2)cc1
inactive: dose: 25.0 mg/kg/injection, schedule: Q01DX009 (ip), vehicle: saline with Tween-80 98 % of control | dose: 50.0 mg/kg/injection, schedule: Q01DX009 (ip), vehicle: saline with Tween-80 93 % of control | [20] 98 % of control | [21] 110 % of control | [22] 100 % of control

COc1ccc(OC)c(NC(=O)c2ccccc2Cl)c1
inactive: [20] 93 % of control and 102 % of control | dose: 100.0 mg/kg/injection, schedule: Q04DX002 (ip), vehicle: saline with Tween-80 103 % of control and 111 % of control | [14] 95 % of control | [21] 94 % of control and 101 % of control | dose: 200.0 mg/kg/injection, schedule: Q04DX002 (ip), vehicle: saline with Tween-80 93 % of control and 100 % of control | [15] 94 % of control | [22] 96 % of control | dose: 400.0 mg/kg/injection, schedule: Q04DX002 (ip), vehicle: saline with Tween-80 103 % of control and 104 % of control | [16] 97 % of control

CCCCC(=O)N/N=C/c1cccc(Br)c1
inactive: [9] 102 % of control | [10] 102 % of control | [11] 98 % of control

C(CCC1CCCC1)=C(CCCC1CCCC1)CCCC1CCCC1
inactive: [17] 100 % of control | [18] 94 % of control | [19] 91 % of control

O=C(/C=C/c1ccccc1)CC(=O)c1ccccc1
inactive: dose: 100.0 mg/kg/injection, schedule: Q04DX003 (ip), vehicle: DMSO 102 % of control | dose: 200.0 mg/kg/injection, schedule: Q04DX003 (ip), vehicle: DMSO 97 % of control | dose: 400.0 mg/kg/injection, schedule: Q04DX003 (ip), vehicle: DMSO 96 % of control
